Measurements taken from patent US8853151B2, “Pro-drug complexes and related methods of use” (The Regents of the University of Michigan, priority 2009, dated 2014).
In brackets after ≈: the same amount, converted by molar mass. Read-outs that look alike come from different tables or passages of the source.

Legend:
[1] = Solubility of SN-38 pro-drug complex in comparison with SN-38; format: physicochemical
Source text: The solubility of SN-38 pro-drug complex
[drawing 23] in comparison with SN-38 was investigated.

[2] = tested on: cervical carcinoma cell line KB; experiment: Effect on cell growth with or without recombinant human DT-Diaphorase (DTD) in the growth medium, KB cells; format: cell-based
Source text: (§1) The redox-coupled release of free SN38 from the SN-38 pro-drug complex
(§2) [drawing 24] using the enzyme DT-Diaphorase (DTD) was investigated. DTD is a cytosolic oxidoreductase which catalyzes the two-electron reduction of quinones using NADH or NADPH as electron donors (see, e.g., Phillips et al, Biochemical Pharmacology 68: 2107-2116 (2004); herein incorporated by reference in its entirety). As the DTD-induced reduction of quinones is known to take place even under normoxic conditions, the enzyme is used as a positive control for testing the release of drugs from quinone-linked drugs. Synthesized SN-38 pro-drug complex was incubated with recombinant human DTD (Sigma) added into the cell growth medium in the presence of different concentration of the SN-38 pro-drug complex. The effect of the drug on cell growth was determined in two different human cell lines, the cervical carcinoma cell line KB, and the breast cancer cell line SKBR3.

[3] = tested on: breast cancer cell line SKBR3; experiment: Effect on cell growth with or without recombinant human DT-Diaphorase (DTD) in the growth medium, SKBR3 cells; format: cell-based
Source text: as §1, §2

[4] = absence of DTD, up to 300 nM prodrug

solubility ([1]; water) [µg/mL]	SMILES	solubility ([1]; in water, read-out: solubility) [µg/mL]	solubility compared with SN38 ([1]; ratio pro-drug complex / SN38)	cytotoxicity [2, 4]	cytotoxicity on redox mediated activation (FIG. 8) ([2]; redox mediated activation)	cytotoxicity [3, 4]	cytotoxicity on redox-mediated activation (FIG. 9) ([3]; redox-mediated activation)
	CCc1c2c(nc3ccc(OC(=O)N(C)CCN(C)C(=O)OCc4c5c(n(CC(=O)NCCOCCOCCOCCn6cc(CCC(=O)CCCC(=O)NCCCCC7NC(=O)[C@@H](Cc8ccc(O)cc8)NC(=O)[C@H](CC(=O)O)NC(=O)CNC(=O)[C@H](CCCNC(=N)N)NC7=O)nn6)c4C)C(=O)C=C(OC)C5=O)cc13)-c1cc3c(c(=O)n1C2)COC(=O)[C@]3(O)CC (stereo partly shown) [SN-38 pro-drug complex]	100	>= 50 times	essentially non-cytotoxic	leads to KB cell cytotoxicity	essentially non-cytotoxic	leads to SKBR3 cell cytotoxicity
~2 (≈ 5.1 µM)	CCc1c2c(nc3ccc(O)cc13)-c1cc3c(c(=O)n1C2)COC(=O)[C@]3(O)CC [SN38, 7-Ethyl-10-hydroxy-camptothecin, reference compound]						
